Literature values as cited in patent US20220395469A1, “TRANSDERMAL DRUG DELIVERY SYSTEM FOR KETAMINE” (GUANGZHOU DAZHOU BIOMEDICINE LTD., priority 2017, published 2022).

Legend:
NMDA receptor = details: in vitro
[1] = not given; remark: listed apart in the source
[2] = three-compartment model, 70-kg human (Fanta et al.)

Structure (SMILES): CN[C@@]1(c2ccccc2Cl)CCCCC1=O [R-ketamine]
- psychotomimetic side effects and abuse liability (Yang et al.): free of psychotomimetic side effects and abuse liability
- antidepressant effectiveness (animal model studies, versus S-ketamine (Yang et al.)): more effective as an antidepressant than S-ketamine

Structure (SMILES): CN[C@]1(c2ccccc2Cl)CCCCC1=O [S-ketamine]
- affinity on NMDA receptor binding relative to R-ketamine (NMDA receptor): ~4 fold

Structure (SMILES): CNC1(c2ccccc2Cl)CCCCC1=O (centres unmarked) [ketamine]
- absolute oral bioavailability ([1]; in humans): 10-20%
- systemic (primarily hepatic) clearance ([1]; in vivo): about 19 ml/min·kg
- V1 [1, 2]: 133 L
- clearance [1, 2]: 79.8 L/h
- micro constant k12 [1, 2]: 0.174 h⁻¹
- micro constant k13 [1, 2]: 1.18 h⁻¹
- micro constant k21 [1, 2]: 0.124 h⁻¹
- micro constant k31 [1, 2]: 1.59 h⁻¹
